Assay results from patent publication US20120022048A1, “Anti-proliferative substituted pyrazolo[3,4-d]pyrimidines derivatives (SPP) to inhibit immune activation, virus replication and tumor growth” (priority 2010, published 2012).
“Also recorded” adds a separate entry of the source. Like-named read-outs stand apart in the source and are kept apart here.

How the values were obtained:
[1] = tested on: primary human CD4 T-lymphocytes; test: Cell hyperproliferation in primary T cells (CFSE staining, mitotic index); type: cell-based; conditions: for anti-proliferative activity (in words) / mitotic index %: SPPs 10 μM, Imatinib 10 μM; for anti-proliferative activity (in words): compared with HU 100 μM, HU+ddI or untreated control; for Anti-proliferative capacity: class symbol, Table 6; for mitotic index %: % of not treated control (100%), day 10
In short: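 Primary human CD4 T cells were activated with PHA (5 μg/ml) on day 5, and IL-2 (20 U/ml) was added on day 7. Compounds were tested at 10 μM and cells harvested on day 10. Proliferation was measured by CFSE dilution as a normalized mitotic index, and apoptosis by Annexin V/7-AAD staining on day 10.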

[2] = tested on: primary human CD4 T-lymphocytes; test: Apoptosis in primary CD4 T cells (Annexin V and 7-AAD staining); type: cell-based; conditions: for apoptotic effect (in words) / apoptosis %: SPPs 10 μM; for apoptotic effect (in words): compared with HU 100 μM, HU+ddI or untreated control; for apoptosis %: total apoptotic events compared to untreated control, day 10, Imatinib 10 μM, HU 100 μM, ddI 2 μM
In short: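 Resting primary human CD4 T cells from healthy donors were PHA-activated (5 μg/ml) at day 5, with IL-2 (20 U/ml) added at day 7. Compounds were tested at 10 μM. At day 10, Annexin V/7-AAD staining gave percentage of total apoptotic events.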

HIV-1 NL 4.3 [3] = test: HIV-1 replication in quiescent CD4 T cells (p24 Ag ELISA); type: cell-based; conditions: for inhibition at 10 µM: Human immunodeficiency virus 1, CD4+ T, read-out: reduction of HIV-1 p24 production / inhibition of HIV replication compared to untreated control; for anti-HIV activity in quiescent cells (in words) / HIV quiescent cells (percentage p24 compared to the untreated control): SPPs 10 μM; for anti-HIV activity in quiescent cells (in words): compared with HU 100 μM, HU+ddI or untreated control; for Antiviral activity in quiescent cells: class symbol, Table 6; for HIV quiescent cells (percentage p24 compared to the untreated control): quiescent CD4 T cells, day 10, HU 100 μM, HU 100 μM+ddI 2 μM
In short: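 Resting human CD4 T cells from healthy donors were infected, then stimulated with PHA 5 μg/ml on day 5 and IL-2 20 U/ml on day 7. Compounds were tested at 10 μM, with HU 100 μM ± ddI 2 μM as comparators. p24 was measured by ELISA on day 10 and expressed as % of untreated control.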

HIV-1 NL 4.3 [4] = test: HIV-1 replication in activated T cells (PBMC, p24 Ag ELISA); type: cell-based; conditions: for inhibition at 10 µM: Human immunodeficiency virus 1, T-cell, read-out: inhibition of p24 production / HIV replication compared to untreated control; for anti-HIV activity in activated T cells (in words): SPPs 10 μM, compared with HU 100 μM, HU+ddI or untreated control; for Antiviral activity in activated cells: class symbol, Table 6; for HIV activated cells (% p24 compared to not treated control): 7 days, SPPs and Imatinib 10 μM, HU 100 μM, ddI 2 μM
In short: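 PBMC from healthy donors, stimulated two days with PHA 5 μg/ml, were infected with HIV-1 NL 4.3 and given IL-2 (20 U/ml) and compound at 10^5 cells per well. After 7 days at 37° C, supernatant p24 Ag was measured by ELISA against an untreated control.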

[5] = tested on: Human peripheral blood mononuclear cells (PBMC); test: Cell cycle analysis of anti-CD3/anti-CD28 stimulated PBMC (Ki-67 and 7-AAD flow cytometry); type: cell-based; conditions: 24 hours treatment; compared to the not treated control; FIG. 6
Procedure: A 48 well plate was coated with anti-CD3 antibody by dispensing 100 microliter of a 10 μg/ml antibody solution followed by overnight incubation at 4° C. Human peripheral blood mononuclear cells (PBMC), obtained from healthy, normal donors, were then plated (2×10^6 cells per well in 1 ml) in complete culture medium supplemented with anti-CD28 antibody (2 μg/ml). Stimulated cells were cultured for 2 days then treated with HU, CsA, and VS1-002 to induce cell cycle arrest.

[6] = tested on: Human peripheral blood mononuclear cells (PBMC); conditions: 7 days
[7] = % of not treated control (100%), SPPs 10 μM, Imatinib 10 μM, HU 100 μM, HU 100 μM+ddI 2 μM

SMILES | anti-proliferative activity (in words) [1] | Anti-proliferative capacity [1] | apoptotic effect (in words) [2] | anti-HIV activity in quiescent cells (in words) (HIV-1 NL 4.3 [3]) | Antiviral activity in quiescent cells (HIV-1 NL 4.3 [3]) | anti-HIV activity in activated T cells (in words) (HIV-1 NL 4.3 [4]) | Antiviral activity in activated cells (HIV-1 NL 4.3 [4]) | effect on cell cycle phases (in words) [5] | % viability ([6]; human, 10 μM) | mitotic index % ([1]; HU 100 μM) | apoptosis % [2] | HIV quiescent cells (percentage p24 compared to the untreated control) (HIV-1 NL 4.3 [3]) | HIV activated cells (% p24 compared to not treated control) (HIV-1 NL 4.3 [4]; activated T cells) | % viability [6, 7] | other results
CCCCNc1nc(SCC)nc2c1cnn2CC(Cl)c1ccccc1 (stereo not shown) [VS1-002, N-butyl-1-(2-chloro-2-phenylethyl)-6-(ethylthio)-1H-pyrazolo[3,4-d]pyrimidin-4-amine] | as effective as 100 μM HU; also recorded: comparable to that of 100 μM HU and superior to that of Imatinib | +++ (excellent (+++, greater than 70% activity)) | did not affect the percentage of apoptotic events; also recorded: not proapoptotic | antiviral activity in both quiescent and in hyperactivated cells | +++ (excellent (+++, greater than 70% activity)) | inhibited HIV replication in activated T cells | +++ (excellent (+++, greater than 70% activity)) | decreased the percentage of cells in S phase with an increase in the percentage of cells in G1 phase | 108.9 ± 8.7% | – | – | – | – | – | less proapoptotic effect than HU 100 μM+ddI 2 μM combination ([2]; 10 μM, spider graph FIG. 3): more than 20%; inhibition at 10 µM (HIV-1 NL 4.3 [3]; quiescent cells, 10 μM): 90%; inhibition at 10 µM (HIV-1 NL 4.3 [4]; activated T cells, 10 μM): 86%; less toxicity than HU 100 μM+ddI 2 μM combination ([6]; human, 10 μM): 20%
NC(=O)NO [HU, hydroxyurea, reference compound] | did substantially decrease cell proliferation | – | no significant increases; also recorded: did not substantially affect the percentage of total apoptotic events | potent antiviral activity | – | not effective in inhibiting HIV replication | – | decreased the percentage of cells in S phase with an increase in the percentage of cells in G1 phase | – | – | – | – | – | – | inhibition at 100 µM ([1]; Homo sapiens, T-lymphocyte, read-out: decrease/inhibition of cell proliferation compared to not treated control): 74%
Fc1ccc(CNc2ncnc3c2cnn3CC(Cl)c2ccc(Cl)cc2)cc1 (stereo not shown) [VS1-029, 1-[2-chloro-2-(4-chlorophenyl)ethyl]-N-(4-fluorobenzyl)-1H-pyrazolo[3,4-d]pyrimidin-4-amine] | good anti-proliferative capacity (superior to 100 μM HU) | +++ (excellent (+++, greater than 70% activity)) | no more apoptotic than HU; also recorded: slight increase | good anti-HIV activity | +++ (excellent (+++, greater than 70% activity)) | good anti-HIV activity | +++ (excellent (+++, greater than 70% activity)) | – | 96.8 ± 4.5% | – | – | – | – | – | more anti-proliferative than HU+ddI ([1]; 10 μM, spider graph FIG. 3): about 20%; decrease/inhibition of cell proliferation compared to not treated control ([1]; SPPs and Imatinib 10 μM, HU 100 μM): 95%; inhibition at 10 µM (HIV-1 NL 4.3 [3]): 94%; inhibition at 10 µM (HIV-1 NL 4.3 [4]): 88%
CCN(CC)c1nc(SC)nc2c1cnn2CC(Cl)c1ccccc1 (stereo not shown) [VS1-032] | comparable or even greater than HU | – | – | – | – | – | – | – | – | 22.0 ± 14.5% | 131.8 ± 58.6% | 19.7 ± 7.2% | 59.3 ± 8.1% | 99.1 ± 3.7% | –
CCOCCNc1nc(SC)nc2c1cnn2CC(Cl)c1ccccc1 (stereo not shown) [VS1-033] | comparable or even greater than HU | – | – | – | – | – | – | – | – | 15.4 ± 6.7% | 138.6 ± 49.7% | 15.0 ± 3.0% | 57.1 ± 10.2% | 108.1 ± 3.5% | –
